Patent US10681909B2, “Herbicidal triazoles” (FMC Corporation, priority 2014, dated 2020)

Tests used:
[1] = system: corn; experiment: Test C preemergence; assay type: in vivo, Zea mays; details: for Plant response rating (scale of 0 to 100 where 0 is no effect and 100 is complete control): Corn, preemergence; for Corn plant response rating (0 to 100): Preemergence, visual rating after 13 to 15 d
From the text: (§1) Seeds of plant species selected from blackgrass (Alopecurus myosuroides), ryegrass, Italian (Italian ryegrass, Lolium multiflorum), wheat (winter wheat, Triticum aestivum), galium (catchweed bedstraw, Galium aparine), corn (Zea mays), crabgrass, large (large crabgrass, Digitaria sanguinalis), foxtail, giant, (giant foxtail, Setaria faberii), johnsongrass (Sorghum halepense), lambsquarters (Chenopodium album), morningglory (Ipomoea coccinea), nutsedge, yellow (yellow nutsedge, Cyperus esculentus), pigweed (Amaranthus retroflexus), ragweed (common ragweed, Ambrosia elatior), soybean (Glycine max), barnyardgrass (Echinochloa crus-galli), oilseed rape (Brassica napus), waterhemp (common waterhemp, Amaranthus rudis), and velvetleaf (Abutilon theophrasti) were planted into a blend of loam soil and sand and treated preemergence with test chemicals formulated in a non-phytotoxic solvent mixture which included a surfactant. At the same time, plants selected from these crop and weed species and also chickweed (common chickweed, Stellaria media), oat, wild (wild oat, Avena fatua), and kochia (Kochia scoparia), were planted in pots containing Sunshine Redi-Earth® planting medium comprising spaghnum peat moss, vermiculite, starter nutrients and dolomitic limestone and treated with postemergence applications of test chemicals formulated in the same manner. Plants ranged in height from 2 to 18 cm (1- to 4-leaf stage) for postemergence treatments. […] A dash (-) response means no test result.

[2] = system: lambsquarters; experiment: Test C preemergence; assay type: in vivo, Chenopodium album; details: for Plant response rating (scale of 0 to 100 where 0 is no effect and 100 is complete control): Lambsquarters, preemergence; for Lambsquarters plant response rating (0 to 100): Preemergence, visual rating after 13 to 15 d
From the text: as §1

[3] = system: oilseed rape; experiment: Test C preemergence; assay type: in vivo, Brassica napus; details: for Plant response rating (scale of 0 to 100 where 0 is no effect and 100 is complete control): Oilseed Rape, preemergence; for Oilseed Rape plant response rating (0 to 100): Preemergence, visual rating after 13 to 15 d
From the text: as §1

[4] = system: corn; experiment: Test A preemergence; assay type: in vivo, Zea mays; details: Zea mays, pre-emergence, 240 h, 0 to 100 scale (0 no effect, 100 complete control); for Corn plant response rating (crop injury, 0 = no effect, 100 = complete kill) at 125 g/ha: 125 g ai/ha; for Corn plant response rating (crop injury, 0 = no effect, 100 = complete kill) at 500 g/ha: 500 g ai/ha, approx. 10 d
Procedure, shortened: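 Plant seeds in loam soil blended with sand, then apply test chemical preemergence as a directed soil spray; in parallel, spray potted seedlings (one- to two-leaf, 2 to 10 cm) postemergence. Both treatments use a non-phytotoxic solvent mixture with surfactant.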

## COc1nc(-c2ccccc2)nn1Cc1ccnc(C(F)(F)F)c1 [Compound 32]
[1]; 125 g ai/ha
  Plant response rating (scale of 0 to 100 where 0 is no effect and 100 is complete control): 5
[1]; 250 g ai/ha
  Plant response rating (scale of 0 to 100 where 0 is no effect and 100 is complete control): 20
[1]; 31 g ai/ha
  Corn plant response rating (0 to 100): 0
[1]; 62 g ai/ha
  Corn plant response rating (0 to 100): 0
[2]; 125 g ai/ha
  Plant response rating (scale of 0 to 100 where 0 is no effect and 100 is complete control): 80
[2]; 250 g ai/ha
  Plant response rating (scale of 0 to 100 where 0 is no effect and 100 is complete control): 90
[2]; 31 g ai/ha
  Lambsquarters plant response rating (0 to 100): 60
[2]; 62 g ai/ha
  Lambsquarters plant response rating (0 to 100): 60
[3]; 125 g ai/ha
  Plant response rating (scale of 0 to 100 where 0 is no effect and 100 is complete control): 10
[3]; 250 g ai/ha
  Plant response rating (scale of 0 to 100 where 0 is no effect and 100 is complete control): 85
[3]; 31 g ai/ha
  Oilseed Rape plant response rating (0 to 100): 5
[3]; 62 g ai/ha
  Oilseed Rape plant response rating (0 to 100): 20

## CS(=O)(=O)c1nc(-c2ccc(F)cc2)nn1Cc1ccnc(C(F)(F)F)c1 [Compound 29, 4-[[3-(4-fluorophenyl)-5-(methylsulfonyl)-1H-1,2,4-triazole-1-yl]methyl]-2-(trifluoromethyl)pyridine]
[4]
  Corn plant response rating (crop injury, 0 = no effect, 100 = complete kill) at 125 g/ha: 0%
  Corn plant response rating (crop injury, 0 = no effect, 100 = complete kill) at 500 g/ha: 0%

## Cn1nc(-c2ccc(F)cc2)nc1Oc1cccc(C(F)(F)F)c1 [Compound 5, 3-(4-fluorophenyl)-1-methyl-5-[3-(trifluoromethyl)phenoxy]-1H-1,2,4-triazole]
[4]
  Corn plant response rating (crop injury, 0 = no effect, 100 = complete kill) at 125 g/ha: 0%
  Corn plant response rating (crop injury, 0 = no effect, 100 = complete kill) at 500 g/ha: 0%

## CCn1nc(-c2ccc(F)cc2)nc1C(=O)c1ccnc(C(F)(F)F)c1 [Compound 19, [1-ethyl-3-(4-fluorophenyl)-1H-1,2,4-triazol-5-yl][2-(trifluoromethyl)-4-pyridinyl]methanone]
[4]
  Corn plant response rating (crop injury, 0 = no effect, 100 = complete kill) at 125 g/ha: 0%
  Corn plant response rating (crop injury, 0 = no effect, 100 = complete kill) at 500 g/ha: 0%

## CCCn1nc(-c2ccc(F)cc2)nc1Cc1ccnc(C(F)(F)F)c1 [Compound 17, 4-[[3-(4-fluorophenyl)-1-propyl-1H-1,2,4-triazol-5-yl]methyl]-2-(trifluoromethyl)pyridine]
[4]
  Corn plant response rating (crop injury, 0 = no effect, 100 = complete kill) at 125 g/ha: 30%
  Corn plant response rating (crop injury, 0 = no effect, 100 = complete kill) at 500 g/ha: 40%
